A word on the IC50: it is the midpoint of a concentration-inhibition curve. The low end stands for higher potency, the high end for lower potency. Usually TGI stands for how far tumour growth fell short of that in controls.

This is an account of results in ChEMBL document CHEMBL1806436, “Structure--activity relationship studies of novel arylsulfonylimidazolidinones for their anticancer activity” (Eur J Med Chem, 2011).

The structures appear in SMILES notation.

Data set [1] is described as follows: Anticancer activity against human KATO III cells by MTT assay. The class given is functional, cell-based, KATO III cell.
The subject of a further data set is COLO 205. Nature of the data set: Anticancer activity against human COLO205 cells by MTT assay. The format is functional, cell-based. In general terms: Formazan colour is commonly taken as a measure of viable cells.
The next data set deals with K562. Nature of the data set: Anticancer activity against human K562 cells by MTT assay. The format is functional, cell-based.
The test system of a further data set is SK-OV-3. Kind of data set: Anticancer activity against human SKOV3 cells by MTT assay. The format is functional, cell-based.
The subject of the next data set is A549. Kind of data set: Anticancer activity against human A549 cells by MTT assay. The format is functional, cell-based.
Data set [2] can be described thus: Anticancer activity against mouse P388D1 cells by MTT assay. The format is functional, cell-based.
The subject of data set [3] is SW-620. Nature of the data set: Anticancer activity against human SW620 cells xenografted in BALB/c nu/nu mouse assessed as tumor growth inhibition at 1 mg/kg, ip qd for 11 days followed by 2 mg/kg, ip qd on day 12 to day 14 and 3 mg/kg, ip qd on day 15 to day 18 measured on day 19. The class given is functional. (In general: A xenograft is tissue or cells of one species grown in another, often human tumour cells in immunodeficient mice.)

The test system of data set [4] is Mus musculus. Kind of data set: Toxicity in human SW620 cells xenografted BALB/c nu/nu mouse assessed as change in body weight at 1 mg/kg, ip qd for 11 days followed by 2 mg/kg, ip qd on day 12 to day 14 and 3 mg/kg, ip qd on day 15 to day 18 measured on day 20 (reference value: 1.1 g). The format is organism-based, SW-620. The note with it: in vivo, 264 h.
Data set [5] concerns NCI-H23. Nature of the data set: Anticancer activity against human NCI-H23 cells xenografted in BALB/c nu/nu mouse assessed as tumor growth inhibition at 1 mg/kg, ip qd for 11 days followed by 2 mg/kg, ip qd on day 12 to day 14 and 3 mg/kg, ip qd on day 15 to day 18 measured on day 19. The format is functional.
Data set [6] concerns Mus musculus. Kind of data set: Toxicity in human NCI-H23 cells xenografted BALB/c nu/nu mouse assessed as change in body weight at 1 mg/kg, ip qd for 11 days followed by 2 mg/kg, ip qd on day 12 to day 14 and 3 mg/kg, ip qd on day 15 to day 18 measured on day 20 (reference value: 1.2 g). The format is organism-based. The note with it: in vivo, 264 h.
Data set [7] has as its system SW-620. Nature of the data set: Anticancer activity against human SW620 cells xenografted in BALB/c nu/nu mouse assessed as tumor growth inhibition at 65 mg/kg, po every alternative day for 12 days measured on day 19. The conditions noted are these: read-out: TGI. The class given is functional.
Data set [8] deals with Mus musculus. Nature of the data set: Toxicity in human NCI-H23 cells xenografted BALB/c nu/nu mouse assessed as change in body weight at 65 mg/kg, po administered every alternative day for 12 days measured on day 20 (reference value: 1.2 g). Also on record: dose 65 mg/kg, route oral. The conditions noted are these: in vivo, 288 h. The class given is organism-based.
Data set [9] deals with NCI-H23. Kind of data set: Anticancer activity against human NCI-H23 cells xenografted in BALB/c nu/nu mouse assessed as tumor growth inhibition at 65 mg/kg, po every alternative day for 12 days measured on day 19. The class given is functional. The note with it: read-out: TGI.
Data set [10] has as its system Mus musculus. Kind of data set: Toxicity in human SW620 cells xenografted BALB/c nu/nu mouse assessed as change in body weight at 65 mg/kg, po administered every alternative day for 12 days measured on day 20 (reference value: 1.1 g). Details: dose 65 mg/kg, route oral. The conditions noted are these: in vivo, 288 h. The class given is organism-based, SW-620.

Regarding `COC(=O)N1CCCc2cc(S(=O)(=O)N3CC(c4ccccc4)NC3=O)ccc21` (stereo not given), the IC50 in data set [1] is 16.5 µM; in the data set on COLO 205, 4.01 µM; in the data set on K562, > 20 µM; with SK-OV-3, 3.48 µM; in the data set with A549, 1.15 µM; in data set [2] it was 2.26 µM.

Consider `O=C(CCl)N1CCCc2cc(S(=O)(=O)N3CC(c4ccccc4)NC3=O)ccc21` (stereo not given), for which the figures for the IC50 (in data set [1]; with COLO 205; in the data set with K562) were 3.46 µM, 11.2 µM and 1.09 µM, respectively.

In the case of `O=C1NC(c2ccccc2)CN1S(=O)(=O)c1ccc2c(c1)CCCN2` (stereo not given), the IC50 in [1] was > 20 µM; with COLO 205 it was 7.23 µM; in the data set with K562, > 20 µM; in the data set with SK-OV-3 it was 10.4 µM; with A549 it was > 20 µM; in data set [2] it was 4.25 µM.

On to `COc1cccc2c1C(=O)c1c(O)c3c(c(O)c1C2=O)C[C@@](O)(C(=O)CO)C[C@@H]3O[C@H]1C[C@H](N)[C@H](O)[C@H](C)O1` [DOXORUBICIN], for which the IC50 in data set [1] was determined as 4.38 µM; in the data set with COLO 205, 0.4 µM; in the data set with K562 it was 0.198 µM; in the data set on SK-OV-3, 2.95 µM; in data set [2] it was 0.338 µM. The TGI worked out at 45% in the data set on SW-620 [3] and 39.6% in the data set on NCI-H23 [5]. Besides, the Activity is -2.3 g in the data set on Mus musculus [4] and -1.6 g with Mus musculus [6].

On to `COc1ccc(NC(=O)N2CCCc3cc(S(=O)(=O)N4CC(C)(c5ccccc5)NC4=O)ccc32)cc1` (stereo not given), for which the IC50 in the data set with COLO 205 is > 20 µM; in the data set with K562, 12.4 µM; in the data set with SK-OV-3 it was 9.47 µM; with A549, 5.3 µM; in data set [2], 15.9 µM.

As for `CCCOC(=O)N1CCCc2cc(S(=O)(=O)N3CC(c4ccccc4)NC3=O)ccc21` (stereo not given), the IC50 in [1] is 3.3 µM; in the data set with COLO 205 it was 1.42 µM; with K562, > 20 µM; with SK-OV-3, 3.92 µM; with A549, 1.03 µM; in [2], 2.02 µM.

Regarding `O=C(OCCCl)N1CCCc2cc(S(=O)(=O)N3CC(c4ccccc4)NC3=O)ccc21` (stereo not given), the IC50 is 8.68 µM in data set [1]; 2.82 µM in the data set on COLO 205; 10.6 µM in the data set with K562; 9.8 µM in the data set with SK-OV-3; > 20 µM in the data set with A549; 1.21 µM in data set [2].

`CC(C)COC(=O)N1CCCc2cc(S(=O)(=O)N3CC(c4ccccc4)NC3=O)ccc21` (stereo not given): the IC50 is 2.75 µM in data set [1]; 3.72 µM with COLO 205; 2.38 µM in the data set with K562; 5.65 µM in the data set on SK-OV-3; > 20 µM in the data set on A549; 1.25 µM in data set [2].

Take `CCCCOC(=O)N1CCCc2cc(S(=O)(=O)N3CC(c4ccccc4)NC3=O)ccc21` (stereo not given): the IC50 was 4.01 µM in data set [1]; 4.11 µM in the data set on COLO 205; 3.68 µM in the data set with K562; 9.57 µM in the data set on SK-OV-3; > 20 µM in the data set on A549; 2.08 µM in data set [2].

Regarding `CCOC(=O)N1CCCc2cc(S(=O)(=O)N3CC(c4ccccc4)NC3=O)ccc21` (stereo not given), the IC50 in data set [1] was 11.2 µM; in the data set on COLO 205, 2.78 µM; in the data set on K562, > 20 µM; in the data set on SK-OV-3, 2.88 µM; with A549, 0.344 µM; in data set [2], 1.43 µM.

For the compound `O=C1NC(c2ccccc2)CN1S(=O)(=O)c1ccc2c(c1)CCCN2C(=O)C(F)(F)F` (stereo not given), the IC50 in [1] is 13.1 µM; with COLO 205, 10.7 µM; in the data set with K562, > 20 µM; in the data set on SK-OV-3 it was 19.6 µM; in the data set with A549, > 20 µM; in data set [2], 4.72 µM.

Turning to `C=CCOC(=O)N1CCCc2cc(S(=O)(=O)N3CC(c4ccccc4)NC3=O)ccc21` (stereo not given), the IC50 amounted to 5.05 µM in data set [1]; 6.58 µM in the data set with COLO 205; 0.473 µM with K562; 2.75 µM in the data set on SK-OV-3; 4.31 µM with A549; 0.945 µM in data set [2].

On to `O=C(NC1CCCCC1)N1CCCc2cc(S(=O)(=O)N3CC(c4ccccc4)NC3=O)ccc21` (stereo not given), for which the IC50 stood at 8.92 µM in [1]; 3.89 µM in the data set on COLO 205; 0.813 µM in the data set on K562; 1.84 µM with SK-OV-3; 0.231 µM with A549; 8.16 µM in data set [2]. Moreover, the inhibition in vivo at 65 mg/kg in the data set on SW-620 [7] amounted to 72.6%; with NCI-H23 [9] it was 65.2%. In addition, the Activity in the data set with Mus musculus [8] is 1.6 g; with Mus musculus [10], 2 g.

In the case of `O=C(Nc1ccc(Cl)cc1)NS(=O)(=O)c1ccc2c(c1)CCC2` [SULOFENUR], the IC50 is 31.4 µM in data set [1]; 23.1 µM in the data set on COLO 205; 19.2 µM in the data set on K562; 78.2 µM with SK-OV-3; > 20 µM with A549; > 100 µM in data set [2].

As for `NC(=O)N1CCCc2cc(S(=O)(=O)N3CC(c4ccccc4)NC3=O)ccc21` (stereo not given), the IC50 in data set [1] is 3.59 µM; in the data set on COLO 205, > 20 µM; in the data set on K562 it was 3.66 µM; in the data set on SK-OV-3, > 20 µM; in the data set with A549, 2.54 µM; in data set [2] it was 12.3 µM.

On to `CC1(c2ccccc2)CN(S(=O)(=O)c2ccc3c(c2)CCCN3C(=O)C(F)(F)F)C(=O)N1` (stereo not given), for which the IC50 (in data set [1]; in the data set with COLO 205; in the data set with K562; in the data set with SK-OV-3; with A549; in data set [2]) was > 20 µM in each case.

In the case of `CSc1ccc(NC(=O)N2CCCc3cc(S(=O)(=O)N4CC(C)(c5ccccc5)NC4=O)ccc32)cc1` (stereo not given), the IC50 (with COLO 205; in the data set with K562; in the data set with SK-OV-3; in the data set with A549; in [2]) was > 20 µM in each case.

As to `O=C(CCl)NC(=O)N1CCCc2cc(S(=O)(=O)N3CC(c4ccccc4)NC3=O)ccc21` (stereo not given), the IC50 in data set [1] stood at 2.54 µM; in the data set on COLO 205 it was 9.9 µM; with K562 it was 0.515 µM; in the data set with SK-OV-3 it was 6.14 µM; in the data set on A549, 0.449 µM; in data set [2] it was 3.87 µM. Further, the inhibition in vivo at 65 mg/kg with SW-620 [7] worked out at 67%; in the data set with NCI-H23 [9], 58.5%. Moreover, the Activity was -0.6 g with Mus musculus [8] and 1 g in the data set with Mus musculus [10].

Take `O=C(c1ccccc1)N1CCCc2cc(S(=O)(=O)N3CC(c4ccccc4)NC3=O)ccc21` (stereo not given): the IC50 in data set [1] came out at 14.3 µM; in the data set on COLO 205, 19.3 µM; with K562, 1.22 µM; in the data set with SK-OV-3, 8.56 µM; with A549, 8.14 µM; in [2], 5.34 µM.
